Values quoted from earlier work, collected in patent US20110129540A1, “Polymer of acrylic or methacrylic type comprising alpha-tocopherol grafts” (Flamel Technologies, priority 2009, published 2011).
In brackets after ≈: the same amount, converted by molar mass.

Conditions: no polymer

- Solubility in pure water: 50 µg/mL (≈ 123 µM)
SMILES: COc1ccccc1OCCNCC(O)COc1cccc2[nH]c3ccccc3c12 (stereo not shown) [carvedilol]
